Reference: patent publication US20230399359A1, “TETRAPEPTIDES, COMPOSITIONS COMPRISING THEM, AND THEIR COSMETIC USE” (Sederma, priority 2020, published 2023)
Residues, ends and D or L forms follow the SMILES beside them. *: point of attachment. Palmitoyl = CCCCCCCCCCCCCCCC(=O)*

Legend:
Format in all cases: cell-based
Collagen IV = assay: ELISA assay of collagen IV synthesis in normal human fibroblast culture supernatants; conditions: NHF, 72 h contact, vs excipient control
Protocol: (§1) Normal human fibroblasts (NHF) in culture are brought into contact with the products to be tested or their excipient (negative control) for 72 h. At the end of the contact, the culture supernatants are removed, and the syntheses of the dermal macromolecules are estimated by ELISA assays. An estimate of cell viability is carried out by Hoechst assay to weight the obtained data.

Fibronectine = assay: ELISA assay of fibronectin synthesis in normal human fibroblast culture supernatants; conditions: NHF, 72 h contact, vs excipient control
Protocol: as §1

Fibrillin 1 = assay: Immunofluorescence assay of Fibrillin 1 formation by normal human fibroblasts; conditions: NHF, five-day incubation, coverage density by image analysis
Protocol: Normal human fibroblasts (NHF) are cultured for at least 24 hours in fibroblast growth medium containing serum. Once confluence was reached, the cells are seeded, and the actives and corresponding controls diluted in a culture medium are added. At the end of a five-day incubation period, the supernatant is removed, the cells are washed with PBS and fixed. The cells are then incubated with the primary Fibrillin 1 monoclonal antibody (11C1.3) (Thermo Fisher) diluted in blocking buffer at a concentration of 1:200. The cells are incubated. The primary antibody is removed, and the cells are washed with PBS. The secondary antibody was added at a dilution of 1:1000 in blocking buffer, then removed and the cells are washed with PBS. The formation of Fibrillin 1 by the cells is visualized using a fluorescence microscope. The obtained images are analyzed using an image processing software assigning a numerical value to the coverage density.

Decorine = assay: ELISA assay of decorin synthesis in normal human fibroblast culture supernatants; conditions: NHF, 72 h contact, vs excipient control
Protocol: as §1

Collagen I (PIP) = assay: ELISA assay of collagen I synthesis (PIP assay) in normal human fibroblast culture supernatants; conditions: NHF, 72 h contact, vs excipient control, weighted by Hoechst viability
Protocol: as §1
Collagen I is evaluated via the PIP assay (carboxy-terminal propeptide of procollagen type I) which is a peptide fragment resulting from the enzymatic degradation of procollagen when the latter is excreted outside the fibroblast (therefore in the culture medium where the assay is carried out).

Row | Molecule | Collagen IV (Collagen IV; concentrations of 5 to 15 ppm) | Fibronectine (Fibronectine; concentrations of 5 to 15 ppm) | Fibrillin 1 (significance) (Fibrillin 1; 12.5 ppm) | Decorine (Decorine; concentrations of 5 to 15 ppm) | Collagen I (PIP) (Collagen I (PIP); concentrations of 5 to 15 ppm) | Collagen IV (Collagen IV; concentrations of 2 to 3 ppm) | Fibronectine (Fibronectine; concentrations of 2 to 3 ppm) | Fibrillin 1 (significance) (Fibrillin 1; 2 ppm) | Decorine (Decorine; concentrations of 2 to 3 ppm) | Collagen I (PIP) (Collagen I (PIP); concentrations of 2 to 3 ppm)
1 | CCCCCCCCCCCCCCCC(=O)N[C@@H](C)C(=O)N[C@H](C(=O)N1CCC[C@H]1C(=O)NCC(=O)O)C(C)C [Pal-AVPG-OH, palmitoyl-alanyl-valyl-prolyl-glycine] (Palmitoyl-AVPG-OH) | +35% | +38% | +121% (p < 0.05) | +20% | +94% | – | – | – | – | –
2 | Pal-VPGA-OH: N-palmitoyl tetrapeptide Val-Pro-Gly-Ala with free C-terminal acid, prepared by the same synthetic process (Palmitoyl-VPGA-OH; SMILES CCCCCCCCCCCCCCCC(=O)N[C@H](C(=O)N1CCC[C@H]1C(=O)NCC(=O)N[C@@H](C)C(=O)O)C(C)C) | – | – | – | – | – | +49% | +115% | +92% (p < 0.05) | +69% | +42%
